Source: patent US12692254B2, “Benzimidazole inhibitors of PAD enzymes” (BRISTOL-MYERS SQUIBB COMPANY, priority 2018, dated 2026)

target: human PAD4 (hPAD4) (Homo sapiens, UniProt Q9UM07); assay: RFMS human PAD4 functional assay (rapid-fire mass spectrum); format: biochemical; conditions: 5 nM hPAD4 enzyme, 250 μM BAEE, 50 μM Calcium; 30 min preincubation, 90 min reaction at 37° C.
In short: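 PAD4 (10 nM) preincubated 30 min with compound (top final 50 μM), then BAEE substrate added in pH 7.5 HEPES buffer with DTT, 50 μM calcium, TPEN; 90 min at 37° C. After TCA quench, citrulline derivatized with phenyl glyoxal (4 mM final, 30 min, 37° C) and quantified by RapidFire MS against internal standard.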

Chain of human PAD4 (hPAD4) (Q9UM07 whole entry): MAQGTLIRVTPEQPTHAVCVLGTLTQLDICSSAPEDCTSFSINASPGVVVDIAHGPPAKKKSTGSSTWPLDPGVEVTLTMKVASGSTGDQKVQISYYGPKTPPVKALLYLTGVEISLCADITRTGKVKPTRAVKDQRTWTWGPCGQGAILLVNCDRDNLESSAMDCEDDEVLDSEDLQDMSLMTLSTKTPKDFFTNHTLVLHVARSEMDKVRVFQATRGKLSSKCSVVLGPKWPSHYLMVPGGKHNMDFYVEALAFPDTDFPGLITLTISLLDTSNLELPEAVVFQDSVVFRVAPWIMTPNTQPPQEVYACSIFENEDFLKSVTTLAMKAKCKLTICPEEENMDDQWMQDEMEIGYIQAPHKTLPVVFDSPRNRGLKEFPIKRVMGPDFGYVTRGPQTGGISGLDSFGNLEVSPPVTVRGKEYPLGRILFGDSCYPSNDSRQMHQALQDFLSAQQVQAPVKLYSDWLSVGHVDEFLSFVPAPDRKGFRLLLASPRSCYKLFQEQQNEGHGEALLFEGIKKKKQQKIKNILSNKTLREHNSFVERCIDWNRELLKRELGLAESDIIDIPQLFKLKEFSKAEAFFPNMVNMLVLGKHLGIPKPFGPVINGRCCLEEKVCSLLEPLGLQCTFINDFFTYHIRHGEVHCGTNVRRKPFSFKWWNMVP

Row | Compound | IC50 [µM]
1 | COc1ccc(C(=O)N2CC(Cn3c(-c4cc5ccccc5n4CC4CC4)nc4cc(C(=O)N5C[C@H]6CC[C@@H]5[C@@H]6N)cc(OC)c43)C2)cc1 [Example 153, (1R,4R,7R)-2-{2-[1-(cyclopropylmethyl)-1H-indol-2-yl]-7-methoxy-1-{[1-(4-methoxybenzoyl)azetidin-3-yl]methyl}-1H-1,3-benzodiazole-5-carbonyl}-2-azabicyclo[2.2.1]heptan-7-amine] | 0.021
2 | COc1cc(C(=O)N2C[C@H]3CC[C@@H]2[C@@H]3N)cc2nc(-c3cc4ccccc4n3CC3CC3)n(CC3CN(C(=O)c4cccc(Cl)c4)C3)c12 [Example 154, (1R,4R,7R)-2-(1-{[1-(3-chlorobenzoyl)azetidin-3-yl]methyl}-2-[1-(cyclopropylmethyl)-1H-indol-2-yl]-7-methoxy-1H-1,3-benzodiazole-5-carbonyl)-2-azabicyclo[2.2.1]heptan-7-amine] | 0.021
3 | COc1cc(C(=O)N2C[C@H]3CC[C@@H]2[C@@H]3N)cc2nc(-c3cc4ccccc4n3CC3CC3)n(CC3CN(C(=O)c4cnn(C)c4)C3)c12 [Example 155, (1R,4R,7R)-2-{2-[1-(cyclopropylmethyl)-1H-indol-2-yl]-7-methoxy-1-{[1-(1-methyl-1H-pyrazole-4-carbonyl)azetidin-3-yl]methyl}-1H-1,3-benzodiazole-5-carbonyl}-2-azabicyclo[2.2.1]heptan-7-amine] | 0.022
4 | COc1cc(C(=O)N2C[C@H]3CC[C@@H]2[C@@H]3N)cc2nc(-c3cc4ccccc4n3CC3CC3)n(CC3CN(C(=O)c4ccc(C)cc4)C3)c12 [Example 156, (1R,4R,7R)-2-{2-[1-(cyclopropylmethyl)-1H-indol-2-yl]-7-methoxy-1-{[1-(4-methylbenzoyl)azetidin-3-yl]methyl}-1H-1,3-benzodiazole-5-carbonyl}-2-azabicyclo[2.2.1]heptan-7-amine] | 0.022
5 | COc1cc(C(=O)N2C[C@H](N)C[C@@H](F)C2)cc2nc(-c3cc4ccccc4n3CC3CC3)n(CC3CN(C(=O)c4cccc(F)c4)C3)c12 [Example 157, (3R,5R)-1-{2-[1-(cyclopropylmethyl)-1H-indol-2-yl]-1-{[1-(3-fluorobenzoyl)azetidin-3-yl]methyl}-7-methoxy-1H-1,3-benzodiazol-5-carbonyl}-5-fluoropiperidin-3-amine] | 0.023
6 | COc1cccc(C(=O)N2CC(Cn3c(-c4cc5ccccc5n4CC4CC4)nc4cc(C(=O)N5C[C@H]6CC[C@@H]5[C@@H]6N)cc(OC)c43)C2)c1 [Example 158, (1R,4R,7R)-2-{2-[1-(cyclopropylmethyl)-1H-indol-2-yl]-7-methoxy-1-{[1-(3-methoxybenzoyl)azetidin-3-yl]methyl}-1H-1,3-benzodiazole-5-carbonyl}-2-azabicyclo[2.2.1]heptan-7-amine] | 0.023
7 | COc1cc(C(=O)N2C[C@H]3CC[C@@H]2[C@@H]3N)cc2nc(-c3cc4ccccc4n3CC3CC3)n(CC3CN(C(=O)c4ccccc4C#N)C3)c12 [Example 159, 2-[3-({5-[(1R,4R,7R)-7-amino-2-azabicyclo[2.2.1]heptane-2-carbonyl]-2-[1-(cyclopropylmethyl)-1H-indol-2-yl]-7-methoxy-1H-1,3-benzodiazol-1-yl}methyl)azetidine-1-carbonyl]benzonitrile] | 0.024
8 | COc1cc(C(=O)N2C[C@H](N)C[C@@H](F)C2)cc2nc(-c3cc4ccccc4n3CC3CC3)n(CC3CN(C(=O)c4ccccc4)C3)c12 [Example 160, (3R,5R)-1-{1-[(1-benzoylazetidin-3-yl)methyl]-2-[1-(cyclopropylmethyl)-1H-indol-2-yl]-7-methoxy-1H-1,3-benzodiazole-5-carbonyl}-5-fluoropiperidin-3-amine] | 0.025
9 | COc1cc(C(=O)N2C[C@H]3CC[C@@H]2[C@@H]3N)cc2nc(-c3cc4ccccc4n3CC3CC3)n(CC3CN(C(=O)c4ccc(F)cc4)C3)c12 [Example 161, (1R,4R,7R)-2-{2-[1-(cyclopropylmethyl)-1H-indol-2-yl]-1-{[1-(4-fluorobenzoyl)azetidin-3-yl]methyl}-7-methoxy-1H-1,3-benzodiazole-5-carbonyl}-2-azabicyclo[2.2.1]heptan-7-amine] | 0.025
10 | COc1cc(C(=O)N2CC3CCC2[C@@H]3N)cc2nc(-c3cc4ccccc4n3CC3CC3)n(CC3CN(C(=O)[C@@H]4C[C@H]4c4ccccc4)C3)c12 (stereo partly drawn) [Example 162, (1R,4R,7R)-2-{2-[1-(cyclopropylmethyl)-1H-indol-2-yl]-7-methoxy-1-({1-[(1R,2R)-2-phenylcyclopropanecarbonyl]aze-tidin-3-yl}methyl)-1H-1,3-benzodiazole-5-carbonyl}-2-azabicyclo[2.2.1]heptan-7-amine] | 0.025
11 | COc1cc(C(=O)N2C[C@H]3CC[C@@H]2[C@@H]3N)cc2nc(-c3cc4ccccc4n3CC3CC3)n(CC3CN(C(=O)c4ccc(C#N)cc4F)C3)c12 [Example 163, 4-[3-({5-[(1R,4R,7R)-7-amino-2-azabicyclo[2.2.1]heptane-2-carbonyl]-2-[1-(cyclopropylmethyl)-1H-indol-2-yl]-7-methoxy-1H-1,3-benzodiazol-1-yl}methyl)azetidine-1-carbonyl]-3-fluorobenzonitrile] | 0.026
12 | COc1cc(C(=O)N2C[C@H]3CC[C@@H]2[C@@H]3N)cc2nc(-c3cc4ccccc4n3CC3CC3)n(CC3CN(C(=O)c4ccccc4F)C3)c12 [Example 164, (1R,4R,7R)-2-{2-[1-(cyclopropylmethyl)-1H-indol-2-yl]-1-{[1-(2-fluorobenzoyl)azetidin-3-yl]methyl}-7-methoxy-1H-1,3-benzodiazole-5-carbonyl}-2-azabicyclo[2.2.1]heptan-7-amine] | 0.026
13 | N#Cc1ccc(C(=O)N2CC(Cn3c(-c4cc5ccccc5n4CC4CC4)nc4cc(C(=O)N5C[C@H]6CC[C@@H]5[C@@H]6N)ccc43)C2)cc1 [Example 165, 4-[3-({5-[(1R,4R,7R)-7-amino-2-azabicyclo[2.2.1]heptane-2-carbonyl]-2-[1-(cyclopropylmethyl)-1H-indol-2-yl]-1H-1,3-benzodiazol-1-yl}methyl)azetidine-1-carbonyl]benzonitrile] | 0.03
14 | COc1cc(C(=O)N2C[C@H]3CC[C@@H]2[C@@H]3N)cc2nc(-c3cc4ccccc4n3CC3CC3)n(CC3CN(C(=O)c4ccc(Cl)cc4)C3)c12 [Example 166, (1R,4R,7R)-2-(1-{[1-(4-chlorobenzoyl)azetidin-3-yl]methyl}-2-[1-(cyclopropylmethyl)-1H-indol-2-yl]-7-methoxy-1H-1,3-benzodiazole-5-carbonyl)-2-azabicyclo[2.2.1]heptan-7-amine] | 0.031

The remaining compounds from weak to strong by IC50, led by results:

Row | IC50 [µM] | Compound
15 | 0.021 | COc1cc(C(=O)N2C[C@H](N)C[C@@H](F)C2)cc2nc(-c3cc4ccccc4n3CC3CC3)n(CC3CN(C(=O)c4cc(C#N)ccc4F)C3)c12 [Example 152, 3-[3-({5-[(3R,5R)-3-amino-5-fluoropiperidine-1-carbonyl]-2-[1-(cyclopropylmethyl)-1H-indol-2-yl]-7-methoxy-1H-1,3-benzodiazol-1-yl}methyl)azetidine-1-carbonyl]-4-fluorobenzonitrile]
16 | 0.02 | N#Cc1ccc(C(=O)N2CC(Cn3c(-c4cc5ccccc5n4CC4CC4)nc4cc(C(=O)N5C[C@H]6CC[C@@H]5[C@@H]6N)cc(Cl)c43)C2)cc1 [Example 150, 4-[3-({5-[(1R,4R,7R)-7-amino-2-azabicyclo[2.2.1]heptane-2-carbonyl]-7-chloro-2-[1-(cyclopropylmethyl)-1H-indol-2-yl]-1H-1,3-benzodiazol-1-yl}methyl)azetidine-1-carbonyl]benzonitrile]
17 | 0.02 | COc1cc(C(=O)N2C[C@H]3CC[C@@H]2[C@@H]3N)cc2nc(-c3cc4ccccc4n3CC3CC3)n(CC3CN(C(=O)c4ccc(C(=O)O)cc4)C3)c12 [Example 151, 4-[3-({5-[(1R,4R,7R)-7-amino-2-azabicyclo[2.2.1]heptane-2-carbonyl]-2-[1-(cyclopropylmethyl)-1H-indol-2-yl]-7-methoxy-1H-1,3-benzodiazol-1-yl}methyl)azetidine-1-carbonyl]benzoic acid]
18 | 0.019 | COc1cc(C(=O)N2C[C@H]3CC[C@@H]2[C@@H]3N)cc2nc(-c3cc4ccccc4n3CC3CC3)n(CC3CN(C(=O)c4ccc(O)cc4F)C3)c12 [Example 147, 4-[3-({5-[(1R,4R,7R)-7-amino-2-azabicyclo[2.2.1]heptane-2-carbonyl]-2-[1-(cyclopropylmethyl)-1H-indol-2-yl]-7-methoxy-1H-1,3-benzodiazol-1-yl}methyl)azetidine-1-carbonyl]-3-fluorophenol]
19 | 0.019 | COc1cc(C(=O)N2C[C@H]3CC[C@@H]2[C@@H]3N)cc2nc(-c3cc4ccccc4n3CC3CC3)n(CC3CN(C(=O)c4cccn4C)C3)c12 [Example 148, (1R,4R,7R)-2-{2-[1-(cyclopropylmethyl)-1H-indol-2-yl]-7-methoxy-1-{[1-(1-methyl-1H-pyrrole-2-carbonyl)azetidin-3-yl]methyl}-1H-1,3-benzodiazole-5-carbonyl}-2-azabicyclo[2.2.1]heptan-7-amine]
20 | 0.019 | COc1cc(C(=O)N2C[C@H]3CC[C@@H]2[C@@H]3N)cc2nc(-c3cc4ccccc4n3CC3CC3)n(CC3CN(C(=O)c4ccc(-c5ccc(O)cc5)cc4)C3)c12 [Example 149, 4′-[3-({5-[(1R,4R,7R)-7-amino-2-azabicyclo[2.2.1]heptane-2-carbonyl]-2-[1-(cyclopropylmethyl)-1H-indol-2-yl]-7-methoxy-1H-1,3-benzodiazol-1-yl}methyl)azetidine-1-carbonyl]-[1,1′-biphenyl]-4-ol]
21 | 0.018 | COc1cc(C(=O)N2C[C@H]3CC[C@@H]2[C@@H]3N)cc2nc(-c3cc4ccccc4n3CC3CC3)n(CC3CN(C(=O)c4ccccc4Cl)C3)c12 [Example 146, (1R,4R,7R)-2-(1-{[1-(2-chlorobenzoyl)azetidin-3-yl]methyl}-2-[1-(cyclopropylmethyl)-1H-indol-2-yl]-7-methoxy-1H-1,3-benzodiazole-5-carbonyl)-2-azabicyclo[2.2.1]heptan-7-amine]
